Reference: paper PMC8286840, “Identifying SARS-CoV-2 antiviral compounds by screening for small molecule inhibitors of Nsp3 papain-like protease” (Biochemical Journal, 2021)
Structures can show the parent of a compound that is named as a salt. Where two headings read alike, the source gives them in different places.

Columns and labels:
[1] = molecular target: T1, SARS-CoV-2 PLpro (nsp3 1564–1878) (Severe acute respiratory syndrome coronavirus 2, UniProt P0DTD1); test: biochemical; parameters: FRET-quenched peptide (Pro3) cleavage by PLpro, 10 min pre-incubation, slope over 20 min, normalised to no-compound control; conditions: low concentration screen
[2] = molecular target: T1, SARS-CoV-2 PLpro (nsp3 1564–1878); test: biochemical; parameters: FRET-quenched peptide (Pro3) cleavage by PLpro, 10 min pre-incubation, slope over 20 min, normalised to no-compound control; conditions: high concentration screen
[3] = read-out: % of control remaining, Well no.=4642
[4] = Well no.=7279, read-out: % of control remaining
[5] = Well no.=1001, read-out: % of control remaining
[6] = Well no.=5622, read-out: % of control remaining
[7] = Well no.=8298, read-out: % of control remaining
[8] = Well no.=7233, read-out: % of control remaining
[9] = Well no.=7954, read-out: % of control remaining
[10] = Well no.=6009, read-out: % of control remaining
[11] = Well no.=2434, read-out: % of control remaining
[12] = Well no.=1635, read-out: % of control remaining
[13] = Well no.=6694, read-out: % of control remaining
[14] = Well no.=1046, read-out: % of control remaining
[15] = Well no.=2101, read-out: % of control remaining
[16] = Well no.=2175, read-out: % of control remaining
[17] = Well no.=7309, read-out: % of control remaining
[18] = Well no.=1020, read-out: % of control remaining
[19] = Well no.=6, read-out: % of control remaining
[20] = Well no.=5821, read-out: % of control remaining
[21] = Well no.=3212, read-out: % of control remaining
[22] = Well no.=4960, read-out: % of control remaining
[23] = Well no.=230, read-out: % of control remaining
[24] = Well no.=2528, read-out: % of control remaining
[25] = Well no.=7356, read-out: % of control remaining
[26] = Well no.=1126, read-out: % of control remaining
[27] = Well no.=5332, read-out: % of control remaining
[28] = Well no.=4811, read-out: % of control remaining
[29] = Well no.=188, read-out: % of control remaining
[30] = Well no.=6871, read-out: % of control remaining
[31] = Well no.=4421, read-out: % of control remaining
[32] = Well no.=7357, read-out: % of control remaining
[33] = Well no.=1114, read-out: % of control remaining
[34] = Well no.=3250, read-out: % of control remaining
[35] = Well no.=1790, read-out: % of control remaining
[36] = Well no.=7687, read-out: % of control remaining
[37] = Well no.=5432, read-out: % of control remaining
[38] = Well no.=6123, read-out: % of control remaining

CC(C)[C@]12O[C@H]1[C@@H]1O[C@]13[C@]1(O[C@H]1C[C@H]1C4=C(CC[C@@]13C)C(=O)OC4)[C@@H]2O [Triptolide]
remaining activity at 1.25 µM [1, 3]: 99.8% | remaining activity at 3.75 µM [2, 3]: 98.1%

CC(C(=O)Nc1cc(C#N)ccc1CCCC(=O)O)c1ccc(F)c2ccccc12 (stereo not drawn) [ONO-AE3-208]
remaining activity at 1.25 µM [1, 4]: 98.9% | remaining activity at 3.75 µM [2, 4]: 94.1%

COC(=O)[C@@H](N)CCCNC(=N)N[N+](=O)[O-] [NG-Nitro-L-arginine methyl ester hydrochloride]
remaining activity at 1.25 µM [1, 5]: 99.6% | remaining activity at 3.75 µM [2, 5]: 98.3%

CC(Nc1nc(N2CCCC2)nc2ccccc12)c1ccccc1 (stereo not drawn) [Importazole]
remaining activity at 1.25 µM [1, 6]: 95.6% | remaining activity at 3.75 µM [2, 6]: 96.8%

OCC(CO)N[C@H]1C[C@](O)(CO)[C@@H](O)[C@H](O)[C@H]1O [Voglibose]
remaining activity at 1.25 µM [1, 7]: 90.6% | remaining activity at 3.75 µM [2, 7]: 93.5%

OC[C@H]1O[C@@H](n2cnc3c(NCc4ccc(O)cc4)ncnc32)[C@H](O)[C@@H]1O [N6-(4-Hydroxybenzyl)adenosine]
remaining activity at 1.25 µM [1, 8]: 106% | remaining activity at 1.25 µM [1, 9]: 101% | remaining activity at 3.75 µM [2, 8]: 101% | remaining activity at 3.75 µM [2, 9]: 97.1%

c1cc(-c2cnn3cc(-c4ccc(N5CCNCC5)cc4)cnc23)c2cccnc2c1 [5-(6-(4-(piperazin-1-yl)phenyl)pyrazolo[1,5-a]pyrimidin-3-yl)quinoline]
remaining activity at 1.25 µM [1, 10]: 104% | remaining activity at 3.75 µM [2, 10]: 101%

CC(C)[C@H](CO)Nc1nc(Nc2cccc(Cl)c2)c2ncn(C(C)C)c2n1 [Purvalanol A - (2R)-2-[[6-[(3-Chlorophenyl)amino]-9-(1-methylethyl)-9H-purin-2-yl]amino]-3-methyl-1-butanol]
remaining activity at 1.25 µM [1, 11]: 105% | remaining activity at 3.75 µM [2, 11]: 105%

Cc1ccc(N(CC2=NCCN2)c2cccc(O)c2)cc1 [Phentolamine]
remaining activity at 1.25 µM [1, 12]: 105% | remaining activity at 3.75 µM [2, 12]: 105%

CCc1cc2c(=O)c(-c3nc4ccccc4s3)coc2c(CN2CCCCC2)c1O [SZL P1-41]
remaining activity at 1.25 µM [1, 13]: 103% | remaining activity at 3.75 µM [2, 13]: 102%

CC(=O)CCCCn1c(=O)c2c(ncn2C)n(C)c1=O [Pentoxifylline]
remaining activity at 1.25 µM [1, 14]: 92.7% | remaining activity at 1.25 µM [1, 15]: 101% | remaining activity at 3.75 µM [2, 14]: 94.8% | remaining activity at 3.75 µM [2, 15]: 100%

CC(=O)Oc1ccc(C(c2ccc(OC(C)=O)cc2)c2ccccn2)cc1 [Bisacodyl]
remaining activity at 1.25 µM [1, 16]: 105% | remaining activity at 3.75 µM [2, 16]: 102%

O=C(O)CNC(=O)c1ccccc1 [Hippuric acid]
remaining activity at 1.25 µM [1, 17]: 109% | remaining activity at 3.75 µM [2, 17]: 106%

CN[C@H](CC(=O)O)C(=O)O [N-Methyl-D-aspartic acid]
remaining activity at 1.25 µM [1, 18]: 103% | remaining activity at 3.75 µM [2, 18]: 105%

NCCCCCC(=O)O [6-Aminohexanoic acid]
remaining activity at 1.25 µM [1, 19]: 101% | remaining activity at 3.75 µM [2, 19]: 102%

CCCN(CCC)C(=O)Cc1c(-c2ccc(Cl)cc2)nc2ccc(Cl)cn12 [Alpidem]
remaining activity at 1.25 µM [1, 20]: 108% | remaining activity at 3.75 µM [2, 20]: 106%

C=C1C[C@]23C[C@@]1(O)CC[C@H]2[C@@]12C=C[C@H](O)[C@@](C)(C(=O)O1)[C@H]2[C@@H]3C(=O)O [(+)-Gibberellic acid]
remaining activity at 1.25 µM [1, 21]: 103% | remaining activity at 3.75 µM [2, 21]: 105%

COc1cccc2cc(-c3nc([C@H]4CC[C@H](C(=O)O)CC4)n4ncnc(N)c34)[nH]c12 [OSI-027]
remaining activity at 1.25 µM [1, 22]: 99.2% | remaining activity at 3.75 µM [2, 22]: 95.6%

C[C@H](Nc1ccc(Cl)cc1)C(=O)O (racemic)
remaining activity at 1.25 µM [1, 23]: 95.2% | remaining activity at 3.75 µM [2, 23]: 97.1%

CN1CCC(Nc2ncc3ncnc(Nc4ccc(F)c(Cl)c4)c3n2)CC1 [BIBX 1382 dihydrochloride - N8-(3-Chloro-4-fluorophenyl)-N2-(1-methyl-4-piperidinyl)-pyrimido[5,4-d]pyrimidine-2,8-diamine dihydrochloride]
remaining activity at 1.25 µM [1, 24]: 96.6% | remaining activity at 3.75 µM [2, 24]: 91%

CC(=O)NS(=O)(=O)c1ccc(NC(=O)c2ccccc2C(=O)O)cc1 [Phthalylsulfacetamide]
remaining activity at 1.25 µM [1, 25]: 105% | remaining activity at 3.75 µM [2, 25]: 100%

CCCCCCCCCCCCCCCCCC(=O)NCC(COP(=O)([O-])OCC[N+](C)(C)C)OC (racemic) [rac-2-Methoxy-3-octadecanamido-1-propylphosphocholine]
remaining activity at 1.25 µM [1, 26]: 96.3% | remaining activity at 3.75 µM [2, 26]: 96.8%

CCC(C)(Oc1ccc(C2(c3ccc(OC(C)(CC)C(=O)O)cc3)CCCCC2)cc1)C(=O)O (stereo not drawn) [Clinofibrate]
remaining activity at 1.25 µM [1, 27]: 96.6% | remaining activity at 3.75 µM [2, 27]: 98.1%

CC(C)OC(=O)OCOP(=O)(CO[C@H](C)Cn1cnc2c(N)ncnc21)OCOC(=O)OC(C)C [Tenofovir Disoproxil Fumarate]
remaining activity at 1.25 µM [1, 28]: 97.8% | remaining activity at 3.75 µM [2, 28]: 99.5%

CC(=O)OCC1=C(C(=O)O)N2C(=O)[C@@H](NC(=O)CSc3ccncc3)[C@H]2SC1 [Cephapirin sodium]
remaining activity at 1.25 µM [1, 29]: 101% | remaining activity at 3.75 µM [2, 29]: 99.7%

O=C[C@H](O)[C@@H](O)[C@@H](O)[C@H](O)CO [D-Galactose]
remaining activity at 1.25 µM [1, 30]: 103% | remaining activity at 3.75 µM [2, 30]: 96.9%

CCCCCCCC[C@H](O)/C=C/C=C\C=C\[C@H](O)CCCC(=O)O [Leukotriene B3]
remaining activity at 1.25 µM [1, 31]: 102% | remaining activity at 3.75 µM [2, 31]: 101%

CC(=O)[C@H]1CC[C@H]2[C@@H]3CC[C@H]4CC(=O)CC[C@]4(C)[C@H]3CC[C@]12C [5a-Pregnane-3,20-dione]
remaining activity at 1.25 µM [1, 32]: 106% | remaining activity at 3.75 µM [2, 32]: 105%

CC[C@@H](CO)NC(=O)[C@@H]1C=C2c3cccc4[nH]cc(c34)C[C@H]2N(C)C1 [Methylergonovine maleate]
remaining activity at 1.25 µM [1, 33]: 94.9% | remaining activity at 1.25 µM [1, 34]: 98.4% | remaining activity at 3.75 µM [2, 33]: 90.6% | remaining activity at 3.75 µM [2, 34]: 98%

Cc1ccc(C(=O)c2cc(O)c(O)c([N+](=O)[O-])c2)cc1 [Tolcapone]
remaining activity at 1.25 µM [1, 35]: 97.4% | remaining activity at 3.75 µM [2, 35]: 96%

NC(N)=NCCCC(=O)O [4-Guanidinobutanoic acid]
remaining activity at 1.25 µM [1, 36]: 108% | remaining activity at 3.75 µM [2, 36]: 106%

O=C(O)/C(S)=C/c1ccc(I)cc1 [PD 150606]
remaining activity at 1.25 µM [1, 37]: 93.8% | remaining activity at 3.75 µM [2, 37]: 97.7%

CC(=O)CC/C=C(\C)CC/C=C(\C)CC/C=C(\C)CCC=C(C)C [Geranylgeranylacetone]
remaining activity at 1.25 µM [1, 38]: 96.8% | remaining activity at 3.75 µM [2, 38]: 95.3%
